Laboratory results published in patent US6762181B1, “Aminomethylpyrrolidine derivatives having aromatic substituents” (Daiichi Pharmaceutical Co., Ltd., priority 1999, dated 2004).
Converted amounts (≈) assume the structure as drawn. Where two headings read alike, the source gives them in different places.

Tests used:
Assay in all cases: Antibacterial activity (MIC), Japan Society of Chemotherapy standard method
Assay type in all cases: cell-based
Pr. Vulgaris O8601 = test system: Pr. Vulgaris O8601
Protocol: (§1) Antibacterial activities of the compounds of the invention were measured in accordance with the standard method specified by the Japan Society of Chemotherapy, with the results shown in the following table as MIC values (μg/ml). In this connection, MIC values of levofloxacin (LVFX), ciprofloxacin (CPFX) and 5-amino-7-[3-(R)-[1-(S)-aminoethyl]pyrrolidin-1-yl]-6-fluoro-1-[2-(S)-fluoro-1-(R)-cyclopropyl]-8-methyl-1,4-dihydro-4-oxoquinoline-3-carboxylic acid (control drug 1) described in WO 9623782 are also shown for the sake of comparison with the MIC values of the compounds of the invention.

K. pneumoniae TYPE 1 = test system: K. pneumoniae TYPE 1
Protocol: as §1

E. faecalis ATCC 19433 = test system: E. faecalis ATCC 19433
Protocol: as §1

Ps. aeruginosa 32121 = test system: Ps. aeruginosa 32121
Protocol: as §1

Ps. aeruginosa 32104 = test system: Ps. aeruginosa 32104
Protocol: as §1

S. flexneri 2A 5503 = test system: S. flexneri 2A 5503
Protocol: as §1

S. epidermidis 56500 = test system: S. epidermidis 56500
Protocol: as §1

X. maltophilia IID 1275 = test system: X. maltophilia IID 1275
Protocol: as §1

E. coli NIHJ = test system: E. coli NIHJ
Protocol: as §1

Str. pneumoniae J24 = test system: Str. pneumoniae J24
Protocol: as §1

Str. pyrogenes G-36 = test system: Str. pyrogenes G-36
Protocol: as §1

Ser. marcescens 10100 = test system: Ser. marcescens 10100
Protocol: as §1

S. aureus FDA 209P = test system: S. aureus FDA 209P
Protocol: as §1

S. aureus 870307 = test system: S. aureus 870307
Protocol: as §1

[1] = Pseudomonas aeruginosa, 32104, Ps. aeruginosa 32104, read-out: MIC
[2] = Shigella flexneri, 2A5503, S. flexneri 2A 5503, read-out: MIC
[3] = Staphylococcus epidermidis, read-out: MIC
[4] = Escherichia coli, read-out: MIC
[5] = Streptococcus pneumoniae, J24, Str. pneumoniae J24, read-out: MIC
[6] = Serratia marcescens, 10100, Ser. marcescens 10100, read-out: MIC
[7] = Staphylococcus aureus, FDA209P, read-out: MIC
[8] = Proteus vulgaris, read-out: MIC
[9] = Klebsiella pneumoniae, TYPE1, K. pneumoniae TYPE 1, read-out: MIC
[10] = Enterococcus faecalis, ATCC19433, E. faecalis ATCC 19433, read-out: MIC
[11] = Pseudomonas aeruginosa, 32121, Ps. aeruginosa 32121, read-out: MIC
[12] = Stenotrophomonas maltophilia, IID1275, X. maltophilia IID 1275, read-out: MIC
[13] = Staphylococcus aureus, 870307, S. aureus 870307, read-out: MIC

Row | Compound | MIC (Pr. Vulgaris O8601) [µg/mL] | MIC (K. pneumoniae TYPE 1; K. pneumoniae TYPE 1) [µg/mL] | MIC (E. faecalis ATCC 19433; E. faecalis ATCC 19433) [µg/mL] | MIC (Ps. aeruginosa 32121; Ps. aeruginosa 32121) [µg/mL] | MIC (Ps. aeruginosa 32104; [1]) [µg/mL] | MIC (S. flexneri 2A 5503; [2]) [µg/mL] | MIC (S. epidermidis 56500; [3]) [µg/mL] | MIC (X. maltophilia IID 1275; X. maltophilia IID 1275) [µg/mL] | MIC (E. coli NIHJ; [4]) [µg/mL] | MIC (Str. pneumoniae J24; [5]) [µg/mL] | MIC (Str. pyrogenes G-36) | MIC (Ser. marcescens 10100; [6]) [µg/mL] | MIC (S. aureus FDA 209P; [7]) [µg/mL] | MIC (Pr. Vulgaris O8601; [8]) [µg/mL] | MIC (K. pneumoniae TYPE 1; [9]) [µg/mL] | MIC (E. faecalis ATCC 19433; [10]) [µg/mL] | MIC (Ps. aeruginosa 32121; [11]) [µg/mL] | MIC (X. maltophilia IID 1275; [12]) [µg/mL] | MIC (Str. pyrogenes G-36; read-out: MIC) [µg/mL] | MIC (S. aureus 870307; [13]) [µg/mL] | further results
1 | Nc1c(F)c(N2CC[C@@H](C(N)c3ccccc3)C2)c(F)c2c1c(=O)c(C(=O)O)cn2[C@@H]1C[C@@H]1F (single isomer, unassigned) [Example 1] | 0.1 (≈ 0.212 µM) | 0.05 (≈ 0.106 µM) | 0.05 (≈ 0.106 µM) | 0.1 (≈ 0.212 µM) | 0.2 (≈ 0.423 µM) | 0.006 (≈ 0.0127 µM) | ≤ 0.003 | 0.1 (≈ 0.212 µM) | ≤ 0.003 | 0.006 (≈ 0.0127 µM) | 0.013 µg/mL (≈ 0.0275 µM) | 0.1 (≈ 0.212 µM) | ≤ 0.003 |  |  |  |  |  |  |  | MIC (S. aureus 870307; S. aureus 870307): 0.025 µg/mL (≈ 0.0529 µM)
2 | Nc1c(F)c(N2CC[C@@H](C(N)c3ccccc3)C2)c(F)c2c1c(=O)c(C(=O)O)cn2[C@@H]1C[C@@H]1F (single isomer, unassigned) [Example 2] | 0.025 (≈ 0.0529 µM) | 0.013 (≈ 0.0275 µM) | 0.006 (≈ 0.0127 µM) | 0.025 (≈ 0.0529 µM) |  |  |  | 0.025 (≈ 0.0529 µM) |  |  | ≦0.003 μg/ml |  |  |  |  |  |  |  |  |  | MIC (Ps. aeruginosa 32104; Ps. aeruginosa 32104): 0.1 µg/mL (≈ 0.212 µM); MIC (S. flexneri 2A 5503; S. flexneri 2A 5503): ≦0.003 μg/ml; MIC (S. epidermidis 56500): ≦0.003 μg/ml; MIC (E. coli NIHJ): ≦0.003 μg/ml; MIC (Str. pneumoniae J24; Str. pneumoniae J24): ≦0.003 μg/ml; MIC (Ser. marcescens 10100; Ser. marcescens 10100): 0.05 µg/mL (≈ 0.106 µM); MIC (S. aureus FDA 209P): ≦0.003 μg/ml; MIC (S. aureus 870307; S. aureus 870307): ≦0.003 μg/ml
3 | O=C(O)c1cn(C2CC2)c2cc(N3CCNCC3)c(F)cc2c1=O [CPFX, ciprofloxacin, reference compound] |  |  |  |  | 0.05 (≈ 0.151 µM) | 0.006 (≈ 0.0181 µM) | 0.2 (≈ 0.604 µM) |  | ≤ 0.003 | 0.1 (≈ 0.302 µM) |  | 0.025 (≈ 0.0754 µM) | 0.1 (≈ 0.302 µM) | ≤ 0.003 | 0.025 (≈ 0.0754 µM) | 0.78 (≈ 2.35 µM) | 0.025 (≈ 0.0754 µM) | 0.78 (≈ 2.35 µM) | 1.56 (≈ 4.71 µM) | 3.13 (≈ 9.45 µM) | 
4 | Cc1c(N2CC[C@@H]([C@H](C)N)C2)c(F)c(N)c2c(=O)c(C(=O)O)cn([C@@H]3C[C@@H]3F)c12 [Control drug 1, 5-amino-7-[3-(R)-[1-(S)-aminoethyl]pyrrolidin-1-yl]-6-fluoro-1-[2-(S)-fluoro-1-(R)-cyclopropyl]-8-methyl-1,4-dihydro-4-oxoquinoline-3-carboxylic acid, reference compound] |  |  |  |  | 0.1 (≈ 0.246 µM) | 0.006 (≈ 0.0148 µM) | ≤ 0.003 |  | 0.006 (≈ 0.0148 µM) | ≤ 0.003 |  | 0.1 (≈ 0.246 µM) | ≤ 0.003 | 0.013 (≈ 0.032 µM) | 0.05 (≈ 0.123 µM) | 0.025 (≈ 0.0615 µM) | 0.05 (≈ 0.123 µM) | 0.2 (≈ 0.492 µM) | ≤ 0.003 | 0.025 (≈ 0.0615 µM) | 
5 | COc1c(N2CC[C@@H](C(N)c3ccccc3)C2)c(F)cc2c(=O)c(C(=O)O)cn([C@@H]3C[C@@H]3F)c12 (stereo partly drawn) [Example 3, 7-[3-(R)-(1-Amino-1-Phenylmethyl)-1-Pyrrolidinyl]-6-Fluoro-1-[2-(S)-Fluoro-1-(R)-Cyclopropyl]-1,4-Dihydro-8-Methoxy-4-Oxoquinoline-3-Carboxylic Acid] |  |  |  |  | 0.1 (≈ 0.213 µM) | ≤ 0.003 | ≤ 0.003 |  | ≤ 0.003 | ≤ 0.003 |  | 0.05 (≈ 0.106 µM) | ≤ 0.003 | 0.025 (≈ 0.0532 µM) | 0.025 (≈ 0.0532 µM) | 0.013 (≈ 0.0277 µM) | 0.05 (≈ 0.106 µM) | 0.025 (≈ 0.0532 µM) | ≤ 0.003 | ≤ 0.003 | 
